Measurements as given in patent US11639343B2, “Compounds targeting and degrading BCR-ABL protein and its antitumor application” (ShanghaiTech University, priority 2019, dated 2023).

Columns and labels:
c-ABL protein = c-ABL protein (Homo sapiens, UniProt P00519); experiment: Western blot degradation of c-ABL in K562 cells; type: cell-based; set-up: Western blot was used to detect the expression of BCR-ABL and c-ABL protein in K562 cells; endogenous in cells; host or cells: K562; details: 16 hours, 1 nM-10 μM
Experimental: (§1) (1) Cell seed: K562 cells were added to the 24 well plates, with a cell density of 3×10^5/ml and a total volume of 1.5 ml; Five concentration gradients, 1 nm, 10 nm, 100 nm, 1 μM, and 10 μM, were respectively set for PROTAD series compounds and comparative examples compounds (Dasa-6-2-2-6-VHL, Dasa-6-2-6-CRBN). […] After 16 hours of drug treatment, the cells were collected in 1.5 ml ep tube, centrifuged at 3000 rpm for 3 minutes, and then added 30 μL PBS and 30 ul 2×SDS to cell precipitated, lysate Heat at 100° C. for 5 minutes, then place on ice for 5 minutes, centrifuged at 10000 rpm for 5 minutes, and take the supernatant as the total protein extracted. The protein concentration was determined by the Bradford method. After each sample was at the same concentration, bromophenol blue was added as the sample indicator.
(§2) (2) Electrophoresis: the starting voltage of the BioRad electrophoresis instrument was 80V, and as the dye enters the separation gel, the voltage was adjusted to 120V;
(§3) (3) Film transfer: prepare filter paper and nitrocellulose membrane with the corresponding size of the gel, filter paper, and NC film were soaked in transfer electrophoresis buffer.
(§4) DC50 (concentration required to degrade protein by half) were calculated based on the intensity from western blot, and data were analyzed via Prism GraphPad with non-linear regression.

U937 (BCR-ABL-) cells = experiment: CCK-8 proliferation inhibition, U937 cells; type: cell-based, human; details: Homo sapiens, U-937; CCK-8, 48 hours of drug treatment, highest concentration 10 μM; read-out: Proliferative inhibitory activity (IC50, nM) U937 (BCR-ABL-);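 note: Ten-point threefold dilution series, absorbance at 450 nm after 2 h with CCK-8 reagent, DMSO as negative control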
HEK293 (BCR-ABL-) cells = experiment: CCK-8 proliferation inhibition, HEK293 cells; details: Homo sapiens, HEK293, 48 h, read-out: Proliferative inhibitory activity (IC50, nM) HEK293 (BCR-ABL-);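 note: Ten-point threefold dilution series starting at 10 µM, CCK-8 absorbance at 450 nm read after 2 h reagent incubation, DMSO-treated cells as negative control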
BCR-ABL protein = BCR-ABL protein (Homo sapiens, UniProt P00519); experiment: Western blot degradation of BCR-ABL in K562 cells; type: cell-based; set-up: Western blot was used to detect the expression of BCR-ABL and c-ABL protein in K562 cells; BCR (fusion partner, P11274); endogenous in cells; host or cells: K562; the other entry of the earlier key: BCR (P11274, Breakpoint cluster region protein); details: 16 hours, 1 nM-10 μM
Experimental: as §1, §2, §3, §4

K562 (BCR-ABL+) cells = experiment: CCK-8 proliferation inhibition, K562 cells; type: cell-based, human; details: Homo sapiens, K562, 48 h, CCK-8, 48 hours of drug treatment; read-out: Proliferative inhibitory activity (IC50, nM) K562 (BCR-ABL+);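 note: Ten-point threefold dilution series starting at 10 µM, absorbance at 450 nm after 2 h with CCK-8, DMSO as negative control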

Chain of c-ABL protein (P00519 whole entry): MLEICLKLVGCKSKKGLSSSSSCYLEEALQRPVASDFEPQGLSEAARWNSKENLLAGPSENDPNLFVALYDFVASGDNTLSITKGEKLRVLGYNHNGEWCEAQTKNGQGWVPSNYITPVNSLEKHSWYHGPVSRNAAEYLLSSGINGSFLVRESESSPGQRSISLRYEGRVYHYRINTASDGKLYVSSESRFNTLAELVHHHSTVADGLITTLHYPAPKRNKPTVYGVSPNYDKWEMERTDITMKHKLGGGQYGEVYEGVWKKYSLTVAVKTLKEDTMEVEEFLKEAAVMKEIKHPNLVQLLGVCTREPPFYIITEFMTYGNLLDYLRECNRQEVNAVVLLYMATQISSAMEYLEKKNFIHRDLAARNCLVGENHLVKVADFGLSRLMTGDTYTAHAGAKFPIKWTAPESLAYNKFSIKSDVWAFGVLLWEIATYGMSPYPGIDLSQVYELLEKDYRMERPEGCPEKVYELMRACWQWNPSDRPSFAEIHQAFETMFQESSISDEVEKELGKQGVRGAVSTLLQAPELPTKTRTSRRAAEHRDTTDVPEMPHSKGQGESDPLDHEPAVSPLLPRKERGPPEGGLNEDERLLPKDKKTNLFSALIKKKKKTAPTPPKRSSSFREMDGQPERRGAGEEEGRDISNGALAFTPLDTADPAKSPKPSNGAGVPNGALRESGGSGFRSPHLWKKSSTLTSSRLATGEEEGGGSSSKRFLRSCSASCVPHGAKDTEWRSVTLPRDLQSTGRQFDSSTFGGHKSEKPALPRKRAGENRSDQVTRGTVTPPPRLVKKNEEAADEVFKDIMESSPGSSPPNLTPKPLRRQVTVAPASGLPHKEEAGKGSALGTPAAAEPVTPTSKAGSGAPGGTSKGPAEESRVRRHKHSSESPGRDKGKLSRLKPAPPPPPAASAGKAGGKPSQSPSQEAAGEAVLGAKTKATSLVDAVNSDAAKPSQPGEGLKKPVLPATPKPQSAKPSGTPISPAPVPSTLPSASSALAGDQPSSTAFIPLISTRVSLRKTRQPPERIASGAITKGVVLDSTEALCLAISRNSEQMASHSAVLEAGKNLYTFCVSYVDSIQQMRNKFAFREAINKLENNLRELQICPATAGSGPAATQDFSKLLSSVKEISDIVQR
Chain of BCR-ABL protein (P00519 with tags, fused parts or gaps): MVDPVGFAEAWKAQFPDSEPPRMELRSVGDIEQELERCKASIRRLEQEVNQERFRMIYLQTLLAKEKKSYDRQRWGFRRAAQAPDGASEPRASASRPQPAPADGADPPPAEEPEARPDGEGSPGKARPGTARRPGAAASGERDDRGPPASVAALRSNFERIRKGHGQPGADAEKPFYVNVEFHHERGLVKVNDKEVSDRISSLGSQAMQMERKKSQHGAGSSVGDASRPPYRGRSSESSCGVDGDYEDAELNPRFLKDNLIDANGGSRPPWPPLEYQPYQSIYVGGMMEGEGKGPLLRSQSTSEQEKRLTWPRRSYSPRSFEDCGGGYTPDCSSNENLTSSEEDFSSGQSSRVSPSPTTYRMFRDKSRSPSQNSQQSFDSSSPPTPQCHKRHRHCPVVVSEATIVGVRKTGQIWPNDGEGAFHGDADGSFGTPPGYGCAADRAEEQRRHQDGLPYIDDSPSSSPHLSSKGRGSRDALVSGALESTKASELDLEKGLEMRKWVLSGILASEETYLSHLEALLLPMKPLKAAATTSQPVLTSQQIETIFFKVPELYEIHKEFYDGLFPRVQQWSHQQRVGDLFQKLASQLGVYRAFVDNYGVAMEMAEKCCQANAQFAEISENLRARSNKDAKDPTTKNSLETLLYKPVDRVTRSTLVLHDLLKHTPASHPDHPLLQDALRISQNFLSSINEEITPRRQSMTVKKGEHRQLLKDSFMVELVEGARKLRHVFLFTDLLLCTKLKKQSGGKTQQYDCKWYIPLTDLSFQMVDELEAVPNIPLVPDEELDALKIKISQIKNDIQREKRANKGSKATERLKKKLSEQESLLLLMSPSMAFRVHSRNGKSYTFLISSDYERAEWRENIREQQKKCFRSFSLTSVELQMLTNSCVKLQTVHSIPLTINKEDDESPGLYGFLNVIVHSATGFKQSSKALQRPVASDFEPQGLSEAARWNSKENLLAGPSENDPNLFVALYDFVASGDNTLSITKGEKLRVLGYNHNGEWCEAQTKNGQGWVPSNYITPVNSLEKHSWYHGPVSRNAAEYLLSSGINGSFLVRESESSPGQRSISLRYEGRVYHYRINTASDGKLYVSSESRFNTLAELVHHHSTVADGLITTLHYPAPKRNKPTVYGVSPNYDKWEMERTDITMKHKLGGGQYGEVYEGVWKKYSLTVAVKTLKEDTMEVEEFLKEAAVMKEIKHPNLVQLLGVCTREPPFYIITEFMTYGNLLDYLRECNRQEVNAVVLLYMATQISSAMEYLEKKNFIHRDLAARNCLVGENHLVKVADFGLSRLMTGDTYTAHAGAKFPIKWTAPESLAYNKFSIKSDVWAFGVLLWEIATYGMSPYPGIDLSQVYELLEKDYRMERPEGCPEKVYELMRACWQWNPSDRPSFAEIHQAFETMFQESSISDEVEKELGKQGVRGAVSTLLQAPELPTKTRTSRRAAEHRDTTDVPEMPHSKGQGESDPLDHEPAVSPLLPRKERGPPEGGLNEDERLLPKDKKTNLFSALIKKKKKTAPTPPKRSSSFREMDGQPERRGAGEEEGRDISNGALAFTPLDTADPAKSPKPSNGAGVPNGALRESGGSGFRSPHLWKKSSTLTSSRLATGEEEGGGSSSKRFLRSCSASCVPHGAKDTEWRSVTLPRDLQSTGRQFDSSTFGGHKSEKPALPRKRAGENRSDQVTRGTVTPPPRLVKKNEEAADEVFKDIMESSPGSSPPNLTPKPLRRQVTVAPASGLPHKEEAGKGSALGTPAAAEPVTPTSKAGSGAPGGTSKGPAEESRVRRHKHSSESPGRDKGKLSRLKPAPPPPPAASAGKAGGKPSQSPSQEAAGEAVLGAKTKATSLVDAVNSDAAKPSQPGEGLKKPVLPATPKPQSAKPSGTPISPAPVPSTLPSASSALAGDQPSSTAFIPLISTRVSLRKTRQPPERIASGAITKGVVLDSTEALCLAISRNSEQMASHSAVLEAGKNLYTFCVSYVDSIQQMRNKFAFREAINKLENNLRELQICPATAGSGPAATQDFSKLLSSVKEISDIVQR

`Cc1nc(Nc2ncc(C(=O)Nc3c(C)cccc3Cl)s2)cc(N2CCN(C(=O)CCCCCC(=O)N[C@H](C(=O)N3C[C@H](O)C[C@H]3C(=O)NCc3ccc(-c4scnc4C)cc3)C(C)(C)C)CC2)n1` [SIAIS151177, N-(2-chloro-6-methylphenyl)-2-((6-(4-(7-(((S)-1-((2S,4R)-4-hydroxy-2-((4-(4-methylthiazol-5-yl)benzyl)carbamoyl)pyrrolidin-1-yl)-3,3-dimethyl-1-oxobutan-2-yl)amino)-7-oxoheptanoyl)piperazin-1-yl)-2-methylpyrimidin-4-yl)amino)thiazole-5-carboxamide] was tested, and the DC50 (c-ABL protein) was 10 to 100 nM, the IC50 (U937 (BCR-ABL-) cells) was > 10000 nM and the IC50 (HEK293 (BCR-ABL-) cells) was > 10000 nM. It also gave a DC50 (BCR-ABL protein) of 1 to 10 nM and an IC50 (K562 (BCR-ABL+) cells) of 37.6 nM.

For `Cc1nc(Nc2ncc(C(=O)Nc3c(C)cccc3Cl)s2)cc(N2CCN(C(=O)CCCCCCCC(=O)N[C@H](C(=O)N3C[C@H](O)C[C@H]3C(=O)NCc3ccc(-c4scnc4C)cc3)C(C)(C)C)CC2)n1` [SIAIS151179, N-(2-chloro-6-methylphenyl)-2-((6-(4-(9-(((S)-1-((2S,4R)-4-hydroxy-2-((4-(4-methylthiazol-5-yl)benzyl)carbamoyl)pyrrolidin-1-yl)-3,3-dimethyl-1-oxobutan-2-yl)amino)-9-oxononanoyl)piperazin-1-yl)-2-methylpyrimidin-4-yl)amino)thiazole-5-carboxamide], the DC50 (c-ABL protein) was 100 to 1000 nM, the IC50 (U937 (BCR-ABL-) cells) was > 10000 nM and the IC50 (HEK293 (BCR-ABL-) cells) was > 10000 nM. The DC50 (BCR-ABL protein) was 10 to 100 nM and the IC50 (K562 (BCR-ABL+) cells) was 22.4 nM.

In the case of `Cc1nc(Nc2ncc(C(=O)Nc3c(C)cccc3Cl)s2)cc(N2CCN(C(=O)CCCCCCCCC(=O)N[C@H](C(=O)N3C[C@H](O)C[C@H]3C(=O)NCc3ccc(-c4scnc4C)cc3)C(C)(C)C)CC2)n1` [SIAIS151180, N-(2-chloro-6-methylphenyl)-2-((6-(4-(10-(((S)-1-((2S,4R)-4-hydroxy-2-((4-(4-methylthiazol-5-yl)benzyl)carbamoyl)pyrrolidin-1-yl)-3,3-dimethyl-1-oxobutan-2-yl)amino)-10-oxodecanoyl)piperazin-1-yl)-2-methylpyrimidin-4-yl)amino)thiazole-5-carboxamide], the DC50 (c-ABL protein) was 10 to 100 nM, the IC50 (U937 (BCR-ABL-) cells) was > 10000 nM and the IC50 (HEK293 (BCR-ABL-) cells) was > 10000 nM. The DC50 (BCR-ABL protein) was 1 to 10 nM and the IC50 (K562 (BCR-ABL+) cells) was 14.3 nM.

With `Cc1nc(Nc2ncc(C(=O)Nc3c(C)cccc3Cl)s2)cc(N2CCN(C(=O)CCCCCCNc3cccc4c3C(=O)N(C3CCC(=O)NC3=O)C4=O)CC2)n1` (stereo not drawn) [SIAIS151181, N-(2-chloro-6-methylphenyl)-2-((6-(4-(7-((2-(2,6-dioxopiperidin-3-yl)-1,3-dioxoisoindolin-4-yl)amino)heptanoyl)piperazin-1-yl)-2-methylpyrimidin-4-yl)amino)thiazole-5-carboxamide] the DC50 (c-ABL protein) was 1 to 10 nM, the IC50 (U937 (BCR-ABL-) cells) was > 10000 nM and the IC50 (HEK293 (BCR-ABL-) cells) was > 10000 nM. For the same compound, the DC50 (BCR-ABL protein) was 1 to 10 nM and the IC50 (K562 (BCR-ABL+) cells) was 1.47 nM.

With `COc1cc(Nc2c(C#N)cnc3cc(OCCCN4CCN(C(=O)CCC(=O)Nc5cccc6c5CN(C5CCC(=O)NC5=O)C6=O)CC4)c(OC)cc23)c(Cl)cc1Cl` (stereo not drawn) [SIAIS164105, 4-(4-(3-((3-cyano-4-((2,4-dichloro-5-methoxyphenyl)amino)-6-methoxyquinolin-7-yl)oxy)propyl)piperazin-1-yl)-N-(2-(2,6-dioxopiperidin-3-yl)-1-oxoisoindolin-4-yl)-4-oxobutanamide] the DC50 (c-ABL protein) was 10 to 100 nM, the IC50 (U937 (BCR-ABL-) cells) was > 10000 nM and the IC50 (HEK293 (BCR-ABL-) cells) was > 10000 nM. The DC50 (BCR-ABL protein) was 10 to 100 nM and the IC50 (K562 (BCR-ABL+) cells) was 459 nM.

In the case of `Cc1nc(Nc2ncc(C(=O)Nc3c(C)cccc3Cl)s2)cc(N2CCN(C(=O)CC(=O)Nc3cccc4c3CN(C3CCC(=O)NC3=O)C4=O)CC2)n1` (stereo not drawn) [SIAIS164108, N-(2-chloro-6-methylphenyl)-2-((6-(4-(3-((2-(2,6-dioxopiperidin-3-yl)-1-oxoisoindolin-4-yl)amino)-3-oxopropanoyl)piperazin-1-yl)-2-methylpyrimidin-4-yl)amino)thiazole-5-carboxamide], the DC50 (c-ABL protein) was 10 to 100 nM, the IC50 (U937 (BCR-ABL-) cells) was > 10000 nM and the IC50 (HEK293 (BCR-ABL-) cells) was > 10000 nM. It also gave a DC50 (BCR-ABL protein) of 10 to 100 nM and an IC50 (K562 (BCR-ABL+) cells) of 12.2 nM.

`Cc1nc(Nc2ncc(C(=O)Nc3c(C)cccc3Cl)s2)cc(N2CCN(C(=O)CCC(=O)Nc3cccc4c3CN(C3CCC(=O)NC3=O)C4=O)CC2)n1` (stereo not drawn) [SIAIS164109, N-(2-chloro-6-methylphenyl)-2-((6-(4-(4-((2-(2,6-dioxopiperidin-3-yl)-1-oxoisoindolin-4-yl)amino)-4-oxobutanoyl)piperazin-1-yl)-2-methylpyrimidin-4-yl)amino)thiazole-5-carboxamide] was tested, and the DC50 (c-ABL protein) was 100 to 1000 nM, the IC50 (U937 (BCR-ABL-) cells) was > 10000 nM and the IC50 (HEK293 (BCR-ABL-) cells) was > 10000 nM. For the same compound, the DC50 (BCR-ABL protein) was 100 to 1000 nM and the IC50 (K562 (BCR-ABL+) cells) was 7.08 nM.

With `Cc1nc(Nc2ncc(C(=O)Nc3c(C)cccc3Cl)s2)cc(N2CCN(C(=O)CCCC(=O)Nc3cccc4c3CN(C3CCC(=O)NC3=O)C4=O)CC2)n1` (stereo not drawn) [SIAIS164110, N-(2-chloro-6-methylphenyl)-2-((6-(4-(5-((2-(2,6-dioxopiperidin-3-yl)-1-oxoisoindolin-4-yl)amino)-5-oxopentanoyl)piperazin-1-yl)-2-methylpyrimidin-4-yl)amino)thiazole-5-carboxamide] the DC50 (c-ABL protein) was 10 to 100 nM, the IC50 (U937 (BCR-ABL-) cells) was > 10000 nM and the IC50 (HEK293 (BCR-ABL-) cells) was > 10000 nM. For the same compound, the DC50 (BCR-ABL protein) was 10 to 100 nM and the IC50 (K562 (BCR-ABL+) cells) was 1.03 nM.

With `COc1cc(Nc2c(C#N)cnc3cc(OCCCN4CCN(C(=O)CCC(=O)NCCNc5cccc6c5C(=O)N(C5CCC(=O)NC5=O)C6=O)CC4)c(OC)cc23)c(Cl)cc1Cl` (stereo not drawn) [SIAIS164136, 4-(4-(3-((3-cyano-4-((2,4-dichloro-5-methoxyphenyl)amino)-6-methoxyquinolin-7-yl)oxy)propyl)piperazin-1-yl)-N-(2-((2-(2,6-dioxopiperidin-3-yl)-1,3-dioxoisoindolin-4-yl)amino)ethyl)-4-oxobutanamide] the DC50 (c-ABL protein) was 1 to 10 nM, the IC50 (U937 (BCR-ABL-) cells) was > 10000 nM and the IC50 (HEK293 (BCR-ABL-) cells) was > 10000 nM. For the same compound, the DC50 (BCR-ABL protein) was 1 to 10 nM and the IC50 (K562 (BCR-ABL+) cells) was 77.6 nM.

For `Cc1nc(Nc2ncc(C(=O)Nc3c(C)cccc3Cl)s2)cc(N2CCN(C(=O)CCCCCOCCOCCOCCCCCC(=O)Nc3cccc4c3C(=O)N(C3CCC(=O)NC3=O)C4=O)CC2)n1` (stereo not drawn) [SIAIS171114, N-(2-chloro-6-methylphenyl)-2-((6-(4-(6-(2-(2-((6-((2-(2,6-dioxopiperidin-3-yl)-1,3-dioxoisoindolin-4-yl)amino)-6-oxohexyl)oxy)ethoxy)ethoxy)hexanoyl)piperazin-1-yl)-2-methylpyrimidin-4-yl)amino)thiazole-5-carboxamide], the DC50 (c-ABL protein) was 10 to 100 nM, the IC50 (U937 (BCR-ABL-) cells) was > 10000 nM and the IC50 (HEK293 (BCR-ABL-) cells) was > 10000 nM. For the same compound, the DC50 (BCR-ABL protein) was 10 to 100 nM and the IC50 (K562 (BCR-ABL+) cells) was 2.57 nM.

With `Cc1nc(Nc2ncc(C(=O)Nc3c(C)cccc3Cl)s2)cc(N2CCN(C(=O)CCc3cccc4c3C(=O)N(C3CCC(=O)NC3=O)C4=O)CC2)n1` (stereo not drawn) [SIAIS172150, N-(2-chloro-6-methylphenyl)-2-((6-(4-(3-(2-(2,6-dioxopiperidin-3-yl)-1,3-dioxoisoindolin-4-yl)propanoyl)piperazin-1-yl)-2-methylpyrimidin-4-yl)amino)thiazole-5-carboxamide] the DC50 (c-ABL protein) was 10 to 100 nM, the IC50 (U937 (BCR-ABL-) cells) was > 10000 nM and the IC50 (HEK293 (BCR-ABL-) cells) was > 10000 nM. For the same compound, the DC50 (BCR-ABL protein) was 10 to 100 nM and the IC50 (K562 (BCR-ABL+) cells) was 2.84 nM.

In the case of `Cc1nc(Nc2ncc(C(=O)Nc3c(C)cccc3Cl)s2)cc(N2CCN(C(=O)CCCCNc3cccc4c3CN(C3CCC(=O)NC3=O)C4=O)CC2)n1` (stereo not drawn) [SIAIS184052, N-(2-chloro-6-methylphenyl)-2-((6-(4-(5-((2-(2,6-dioxopiperidin-3-yl)-1-oxoisoindolin-4-yl)amino)pentanoyl)piperazin-1-yl)-2-methylpyrimidin-4-yl)amino)thiazole-5-carboxamide], the DC50 (c-ABL protein) was 10 to 100 nM, the IC50 (U937 (BCR-ABL-) cells) was > 10000 nM and the IC50 (HEK293 (BCR-ABL-) cells) was > 10000 nM. For the same compound, the DC50 (BCR-ABL protein) was 1 to 10 nM and the IC50 (K562 (BCR-ABL+) cells) was 4.2 nM.
